Experimental data from patent US9056104B2, “Dynamic inhibitors of heat shock protein 90” (THE UNIVERSITY OF KANSAS, priority 2011, dated 2015).
Like-named read-outs stand apart in the source and are kept apart here.

What was measured:
Format in all cases: cell-based
[1] = tested on: SKBr3 (estrogen receptor negative, Her2 over-expressing breast cancer cells); assay: Anti-proliferative activity against SKBr3 cells; details: mean ± SD
Description: (§1) Once synthesized, the library of coumermycin A1 analogs containing the olefinic and saturated linkers, were evaluated for anti-proliferative activity against SKBr3 (estrogen receptor negative, Her2 over-expressing breast cancer cells), MCF-7 (estrogen receptor positive breast cancer cells), A549 (human lung adenocarcinoma epithelial), HT29 (Human colon adenocarcinoma grade II), and PC3mm2 (androgen receptor insensitive prostate cancer) cell lines. […] As shown, X is at the 6 position and Y is at the 8 position.

[2] = tested on: MCF-7 (estrogen receptor positive breast cancer cells); assay: Anti-proliferative activity against MCF-7 cells; details: mean ± SD
Description: as §1

[3] = tested on: A549 (human lung adenocarcinoma epithelial); assay: Anti-proliferative activity against A549 cells; details: Table 2; read-out: Anti-Proliferation Activities of non-Noviosylated Olefin Dimers, A549
Description: as §1, with “lines. The activities produced provide insight into the optimal distance between binding sites and provide rationale for subsequent analog design.” for “lines.”

[4] = tested on: PC3mm2 (androgen receptor insensitive prostate cancer); assay: Anti-proliferative activity against PC3mm2 cells; details: Table 2; read-out: Anti-Proliferation Activities of non-Noviosylated Olefin Dimers, PC3mm2
Description: as §1, with “lines. The activities produced provide insight into the optimal distance between binding sites and provide rationale for subsequent analog design.” for “lines.”

[5] = tested on: HT29 (Human colon adenocarcinoma grade II); assay: Anti-proliferative activity against HT29 cells; details: Table 2; read-out: Anti-Proliferation Activities of non-Noviosylated Olefin Dimers, HT29
Description: as §1, with “lines. The activities produced provide insight into the optimal distance between binding sites and provide rationale for subsequent analog design.” for “lines.”

[6] = tested on: SKBr3, MCF-7, A549, HT29 and PC3mm2 cell lines; assay: Anti-proliferative activity, cell lines not specified; details: 8-methyl coumarin series, versus Compound 32
Description: as §1, with “lines. The activities produced provide insight into the optimal distance between binding sites and provide rationale for subsequent analog design.” for “lines.”

[7] = tested on: HSP90-dependent client proteins (Her-2, Raf, Akt); assay: Western blot analyses of HSP90 client protein degradation in MCF-7 breast cancer cells; details: MCF-7 lysates, 24 hour treatment, 5x and 1/2 of antiproliferative IC50; actin control
Description: Since actin is not dependent on HSP90 for its maturation, actin levels should remain constant after treatment with an HSP90 inhibitor and is therefore used as a control. […] L represents a concentration ½ of the anti-proliferative IC50 value while H represents a concentration 5 times greater than the anti-proliferative IC50 value. GDA (500 nM) represents a positive control, while DMSO (0), vehicle, serves as the negative control. […]

[8] = Table 1, at least two experiments in triplicate, read-out: Anti-Proliferation Activities of Noviosylated Olefin Dimers, SKBr3
[9] = Table 1, at least two experiments in triplicate, read-out: Anti-Proliferation Activities of Noviosylated Olefin Dimers, MCF-7
[10] = Table 2, read-out: Anti-Proliferation Activities of non-Noviosylated Olefin Dimers, SKBr3
[11] = Table 2, read-out: Anti-Proliferation Activities of non-Noviosylated Olefin Dimers, MCF7

| SMILES | IC50 [1, 8] [nM] | IC50 [2, 9] [nM] | IC50 [3] [µM] | IC50 [4] [nM] | IC50 [5] [µM] | IC50 [1, 10] [nM] | IC50 [2, 11] [nM] | fold more active than the 10-carbon linker (Compound 32) [6] | degradation of HSP90 client proteins (Her-2, Raf, Akt), Western blot [7] |
| --- | --- | --- | --- | --- | --- | --- | --- | --- | --- |
| COc1cc2cc(NC(=O)CC=CCC(=O)Nc3cc4cc(OC)c(OC5OC(C)(C)C(OC)C(O)C5O)c(C)c4oc3=O)c(=O)oc2c(C)c1OC1OC(C)(C)C(OC)C(O)C1O (stereo not drawn) [Compound 16] | > 100000 | > 100000 | – | – | – | – | – | – | – |
| COc1c(OC2OC(C)(C)C(OC)C(O)C2O)ccc2cc(NC(=O)CC=CCC(=O)Nc3cc4ccc(OC5OC(C)(C)C(OC)C(O)C5O)c(OC)c4oc3=O)c(=O)oc12 (stereo not drawn) [Compound 17] | 52000 ± 7800 | > 100000 | – | – | – | – | – | – | – |
| COc1cc2cc(NC(=O)CCC=CCCC(=O)Nc3cc4cc(OC)c(OC5OC(C)(C)C(OC)C(O)C5O)c(C)c4oc3=O)c(=O)oc2c(C)c1OC1OC(C)(C)C(OC)C(O)C1O (stereo not drawn) [Compound 18] | 106000 ± 13200 | 168000 ± 9700 | – | – | – | – | – | – | – |
| COC1C(O)C(O)C(Oc2ccc3cc(NC(=O)CC=CCC(=O)Nc4cc5ccc(OC6OC(C)(C)C(OC)C(O)C6O)c(C)c5oc4=O)c(=O)oc3c2C)OC1(C)C (stereo not drawn) [Compound 20] | > 100000 | 53100 ± 7100 | – | – | – | – | – | – | – |
| COC1C(O)C(O)C(Oc2ccc3cc(NC(=O)CCC=CCCC(=O)Nc4cc5ccc(OC6OC(C)(C)C(OC)C(O)C6O)c(C)c5oc4=O)c(=O)oc3c2C)OC1(C)C (stereo not drawn) [Compound 21] | 1500 ± 100 | 3900 ± 700 | – | – | – | – | – | – | – |
| Cc1c(OC2CCN(C)CC2)ccc2cc(NC(=O)C/C=C/CC(=O)Nc3cc4ccc(OC5CCN(C)CC5)c(C)c4oc3=O)c(=O)oc12 [Compound 26] | – | – | 8.84 | 7510 | 7.1 | 180 ± 30 | 290 ± 10 | – | – |
| COc1cc2cc(NC(=O)C/C=C/CC(=O)Nc3cc4cc(OC)c(OC5CCN(C)CC5)c(C)c4oc3=O)c(=O)oc2c(C)c1OC1CCN(C)CC1 [Compound 27] | – | – | 0.55 | 170 | – | 270 ± 10 | 560 ± 50 | – | – |
| COc1c(OC2CCN(C)CC2)ccc2cc(NC(=O)C/C=C/CC(=O)Nc3cc4ccc(OC5CCN(C)CC5)c(OC)c4oc3=O)c(=O)oc12 [Compound 28] | – | – | – | 8630 | – | 710 ± 40 | 1460 ± 200 | – | – |
| Cc1c(OC2CCN(C)CC2)ccc2cc(NC(=O)CC/C=C/CCC(=O)Nc3cc4ccc(OC5CCN(C)CC5)c(C)c4oc3=O)c(=O)oc12 [Compound 29] | – | – | 5.54 | 4190 | 0.05 | 150 ± 10 | 270 ± 20 | 2-3 fold | – |
| COc1cc2cc(NC(=O)CC/C=C/CCC(=O)Nc3cc4cc(OC)c(OC5CCN(C)CC5)c(C)c4oc3=O)c(=O)oc2c(C)c1OC1CCN(C)CC1 [Compound 30] | – | – | 13.4 | 4860 | – | 1100 ± 130 | 1310 ± 100 | – | – |
| COc1c(OC2CCN(C)CC2)ccc2cc(NC(=O)CC/C=C/CCC(=O)Nc3cc4ccc(OC5CCN(C)CC5)c(OC)c4oc3=O)c(=O)oc12 [Compound 31] | – | – | 1.22 | 60 | – | 2220 ± 500 | 1120 ± 30 | – | no activity against HSP90 client proteins |
| COc1cc2cc(NC(=O)CCC/C=C/CCCC(=O)Nc3cc4cc(OC)c(OC5CCN(C)CC5)c(C)c4oc3=O)c(=O)oc2c(C)c1OC1CCN(C)CC1 [Compound 33] | – | – | 37.7 | 380 | – | 220 ± 50 | 310 ± 50 | – | – |
| COc1c(OC2CCN(C)CC2)ccc2cc(NC(=O)CCC/C=C/CCCC(=O)Nc3cc4ccc(OC5CCN(C)CC5)c(OC)c4oc3=O)c(=O)oc12 [Compound 34] | – | – | 1.21 | 50 | – | 370 ± 50 | 880 ± 110 | – | – |
